Assay results: patent US20250051407A1, “De novo designed sequence-specific DNA binding proteins” (University of Washington, priority 2023, published 2025)
Entries after “also recorded” stand apart in the source; their conditions may differ.

Experiments:
dsDNA target = assay: Site saturation mutagenesis (SSM) library sorting, protein-side footprinting; format: binding; settings: for Tolerance of positions to substitution: interface, core and surface positions; for Substitutions improving binding: every residue substituted with each of the 20 amino acids
Description: As disclosed in the examples that follow, the contributions of each amino acid to binding for additional designs, high-resolution footprints of the binding surface as generated was assessed by sorting site saturation mutagenesis libraries (SSMs) in which every residue was substituted with each of the 20 amino acids one at a time for DBPs 1, 6, and 35. Permissible substitutions for many of the polypeptides of the disclosure are provided in columns 2 and 3 Tables 4-19.
Thus, in some embodiments, substitutions relative to the reference sequence are selected from residues listed in columns 2 or 3 of one of Tables 4-19. In other embodiments, substitutions relative to the reference sequence are selected from residues listed in column 2 of one of Tables 4-19. Column 2 lists the “best” substitutions, which retain or improve DNA target binding activity relative to the reference sequence. Column 3 lists “permissible” substitutions, which retain binding to the DNA target sequence.
To assess the contributions of each amino acid to binding for additional designs, high-resolution footprints of the binding surface as generated by sorting site saturation mutagenesis libraries (SSMs) in which every residue was substituted with each of the 20 amino acids one at a time for DBPs 1, 6, and 35. […] In a small number of cases, substitutions led to notable improvements in binding affinity.
Cell sorting of labeled yeast pools was performed using a Sony SH800S cell sorter. Libraries of designs were sorted using the with-avidity method for the first few rounds of screening to exclude weak binder candidates, followed by several without-avidity sorts with different concentrations of targets. For SSM libraries, two rounds of with-avidity sorts were applied and in the third round of screening the libraries were titrated with a series of decreasing concentrations of targets to enrich mutants with beneficial mutations.
The Pear program was used to assemble the fastq files from the deep sequencing runs. Translated, assembled reads were matched against the ordered design to determine the number of counts for each design in each pool. In each sequenced pool, binder enrichment was calculated by determining the percent of reads for each binder design in the pool and dividing this number by the same value in the naive expression sort pool. […] For SSM libraries, apparent SC50 was estimated using the fitting procedure described in Longxing et al. (15)

13 unique dsDNA targets = assay: All-by-all yeast surface display screen of DBP design hits; format: binding; settings: for Target sequence preference: 13 unique dsDNA targets; for Number of the 13 tested DNA target sequences preferentially bound: 1 μM dsDNA with avidity, including designed target sequence; for Binding specificity versus design models: all-by-all screen with Rosetta-predicted motifs
Description: And an all-by-all screen of DBP design hits to 13 unique dsDNA targets was performed (FIG. 4, table 2). […] To try to understand these observed binding preferences, each tested DNA sequence was threaded onto each design complex model at all possible base pair alignments, the alternative complex models were relaxed with Rosetta™, and the model with the most favorable Rosetta™ ΔΔG was selected.
Saccharomyces cerevisiae EBY100 strain cultures were grown in C-Trp-Ura medium supplemented with 2% (w/v) glucose. For induction of expression, yeast cells were centrifuged at 6,000 g for 1 min and resuspended in SGCAA medium supplemented with 0.2% (w/v) glucose at the cell density of 1×10^7 cells per ml and induced at 30° C. for 16-24 h. Cells were washed with PBSF (PBS with 1% (w/v) BSA) and labeled with biotinylated targets using two labeling methods: with-avidity and without-avidity labeling. For the with-avidity method, the cells were incubated with biotinylated target, together with anti-c-Myc fluorescein isothiocyanate (FITC, Miltenyi Biotech) and streptavidin-phycoerythrin (SAPE, ThermoFisher). The concentration of SAPE in the with-avidity method was used at one-quarter of the concentration of the biotinylated targets. For the without-avidity method, the cells were first incubated with biotinylated targets, washed and secondarily labeled with SAPE and FITC.
(§1) For yeast display characterization of individual designs, including competition assays, DNA sequences encoding the proteins of interest were purchased as Integrated DNA Technologies (IDT) E-Blocks™, transformed into yeast cells, and incubated in 96 well culture plates. Labeling with biotinylated dsDNA targets and SAPE/FITC was performed in a 96 well plate format. For yeast display competition assays, labeling was performed without avidity using 1 μM biotinylated dsDNA duplex oligos and an excess of 8 μM non-biotinylated competitor dsDNA duplex oligos. […] Flow cytometry analysis was performed with an Attune NxT™ flow cytometer with autosampler. Flow cytometry data analysis was performed using custom python code and the CytoFlow™ python package. For each individual sample, gating of the expression population was performed using the CytoFlow™ Gaussian Mixture Model and the ratio of SAPE channel intensity to FITC channel intensity (binding signal/expression signal) was calculated for all gated expression events of the sample.

[1] = system: biotinylated target dsDNA with non-biotinylated competitor dsDNA; assay: Yeast display competition assay with base-substituted competitor dsDNA; format: binding; settings: for DNA binding site specificity: all possible base mutations at each position of the competitor oligo
Excerpt: We used a yeast display competition assay to characterize the DNA binding site specificity of a subset of the designs (FIG. 1A-E, left; FIG. 5). Addition of non-biotinylated competitor dsDNA to biotinylated target sequence reduced binding signal by flow cytometry (FIG. 1A-E, middle). […] For example, in DBP6 (FIG. 1A) R31 and R36 in the design model form bidentate hydrogen bonds with the guanines of base pair positions G12 and C9, respectively, while T32 forms a hydrogen bond with C10.
as §1

[2] = system: synTF-specific cis-regulatory elements (CRE) in HEK293T cells; assay: Transcriptional activation by synTFs in HEK293T cells (ENGRAM); format: cell-based; settings: DBP fused to GCN4 dimerization domain and VP64; HEK293T cells expressing PEmax; dependent on spacing between motifs
Excerpt: Next, we investigated whether the DBPs can be used as activators in mammalian cells. A set of synthetic transcription factors (synTFs) were created by fusing the GCN4 dimerization domain and the VP64 activation domain to the C-termini of DBPs 9, 35opt, 48, 57, and 60 which recognize 3 unique motifs. The dimerization domain allows the DBPs to recognize a palindromic target sequence consisting of two binding motifs, improving the binding affinity to the DNA sequence (FIG. 2C). We created synTF specific cis-regulatory elements (CRE) with 4 repeats spaced by 6 bp to drive the expression of downstream genes, and used the ENGRAM (43) recording technology to measure the activity of the synTFs in HEK293 cells. In ENGRAM, each CRE drives the expression of a uniquely barcoded pegRNA, which upon expression is recorded into the DNA TAPE at the HEK3 locus by prime-editor (PEmax); the activity of individual synTFs can be measured as the abundance of the barcode on the DNA TAPE (FIG. 2C). We first tested 3 different spacings-1 bp, 3 bp, and 5 bp-between the palindromic binding motifs to maximize the recorder activity. 3 synTF specific recorders and 1 TCF-LEF-recorder (negative control) were mixed with ratio 2:2:2:1 and co-transfected with synTFs into the HEK293T cells expressing PEmax. Cells were harvested and analyzed 2 days post-transfection. After analyzing the barcode abundance on the DNA TAPE, we observed 3-5 fold activation for DBP9/DBP35 and DBP57/DBP60 (FIG. 2D).
HEK293T cells expressing PEmax™ were cultured in DMEM High glucose (GIBCO), supplemented with 10% Fetal Bovine Serum (Rocky Mountain Biologicals) and 1% penicillin-streptomycin (GIBCO). Cells were grown with 5% CO2 at 37° C. 1×10^5 cells were seeded on a 48-well plate a day before transfection. Enhancer plasmid and binder plasmid were mixed with a ratio of 2:1. Enhancer variants and background control were mixed with a ratio of 2:2:2:1. A total of 300 ng of plasmid were transfected using Lipofectamine™ 3000 (ThermoFisher, L3000015), following the manufacturer's protocol. Cells were harvested 2 days post-transfection. Genomic DNA was extracted based on the protocol described earlier (43). Briefly, cells were lysed using freshly prepared lysis buffer (10 mM Tris-HCl, pH 7.5; 0.05% SDS; 25 µg/ml protease (ThermoFisher)) for each well. The genomic DNA mixture was incubated at 50° C. for 1 h, followed by an 80° C. enzyme inactivation step for 30 min. The DNA TAPE was amplified from the genomic DNA directly for next generation sequencing. Recorded information was extracted via custom analysis code. Each enhancer has a unique barcode representing its activity. Transcription activation was measured as the fold change in the barcode abundance relative to the negative control barcode. All measurements were performed in triplicates.

| Molecule | Tolerance of positions to substitution (dsDNA target) | Target sequence preference (13 unique dsDNA targets) | DNA binding site specificity [1] | Substitutions improving binding (dsDNA target) | Number of the 13 tested DNA target sequences preferentially bound (13 unique dsDNA targets) | Binding specificity versus design models (13 unique dsDNA targets) | Number of base positions of specificity [1] [base positions] | Fold activation of synTFs measured as normalized barcode abundance in the DNA TAPE [2] |
| --- | --- | --- | --- | --- | --- | --- | --- | --- |
| DBP1: designed DNA-binding protein, SEQ ID NO: 1, DNA target A (TARELEVAALIAQGRSNREIAEELNISERTVERYVRRILRKLGLRNRAQIAAWVIRRS) | most positions at the interface and the core were largely conserved while positions at the surface were more tolerant of substitutions | strong preference for 2 or 3 of the sequence targets | specificities consistent with the designed sidechain-base interactions | – | – | – | – | – |
| DBP6: designed DNA-binding protein, SEQ ID NO: 4, DNA target B (DWAARAAAARRLRKERGLTQAELGELAGVSRTTVSRIELGRPDVSQASVDAVLAVL) | most positions at the interface and the core were largely conserved while positions at the surface were more tolerant of substitutions | strong preference for only their designed target sequence | specificity for a 6 nucleotide stretch (TGCACA) with peripheral dependence on T8 and A13; also recorded: specificities consistent with the designed sidechain-base interactions; also recorded: specificity for the GCxG motif | relatively few mutations at interface positions improved binding with the exceptions of L39, D43, and 548 | less than 3 | bound with specificity closely consistent with the design models | – | – |
| DBP35: designed DNA-binding protein, SEQ ID NO: 15, DNA target B (protein) GFGRAVKEKRKELGLTQKEFAEKAGLSRRTIIRIERGYIVPPKATKEKIAKALGTSVEELEQA | most positions at the interface and the core were largely conserved while positions at the surface were more tolerant of substitutions | – | specificities consistent with the designed sidechain-base interactions | substitutions of R33 and K18 improved binding | less than 3 | bound with specificity closely consistent with the design models | 3 | 3-5 fold |
